Source: PMC11431997, “Baicalin Inhibits FIPV Infection In Vitro by Modulating the PI3K-AKT Pathway and Apoptosis Pathway” (International Journal of Molecular Sciences, 2024)
Converted amounts (≈) assume the structure as drawn.

Assays:
[1] = test system: FIPV (BJ-01); experiment: Direct inactivation of FIPV (compound pre-mixed with virus, CCK-8); format: cell-based, feline infectious peritonitis virus
Procedure: According to previous methods, CRFK cells were seeded in 96-well cell culture plates at a density of 1 × 10^4 cells/well and cultured at 37 °C in 5% CO2 until the cell density was greater than 90%. Then, the medium was discarded, and the cells were washed twice with PBS. The compound was mixed with FIPV in the ratio of 1:1 and incubated at 37 °C and 5% CO2 for 30, 60, 90, 120, and 150 min, respectively; then, the mixture of different incubation durations were added into 96-well cell culture plates at 100 μL/well and incubated at 37 °C and 5% CO2, respectively (at the same time, a cell control group with only 100 μL of MM and a viral control group with only 100 μL of FIPV were added). There were 3 replicate wells for each compound and group. After the CPE of the viral control group reached more than 80%, the liquid in the culture plate was removed and washed twice with PBS. Afterwards, the IR of the compounds against the virus was computed according to the directions of the Cell Counting Kit-8.

[2] = test system: PI3K-AKT signaling pathway and apoptosis pathway; experiment: 4D-LFQ proteomics of FIPV-infected CRFK cells; format: cell-based, feline; details: 48 h
From the text: According to the methods of Section 4.6, post-infection cells were collected at the appropriate time of infection and then quickly frozen in liquid nitrogen. The cell control group was named the control group (Group C), the virus control group was named the FIPV group (Group F), the compound treatment group was named the treatment group (Group T), and each group contained three replicate samples. Afterwards, they were sent to Shanghai Applied Protein Technology Co., Ltd. (Shanghai, China) for 4D-LFQ proteomics analysis.

[3] = test system: FIPV-infected CRFK cells; experiment: FIPV-induced apoptosis, Annexin V-FITC/PI assay; format: cell-based, feline; details: baicalin-treated FIPV-infected CRFK cells, 24 h after infection, p < 0.05
Procedure: CRFK cells were seeded in 96-well cell culture plates at a density of 1 × 10^4 cells/well and cultured at 37 °C in 5% CO2 until the cell density was greater than 90%. After the cells were washed twice with PBS, 50 μL of test compound and 50 μL of FIPV were added to each well simultaneously (at the same time, a cell control group with only 100 μL of MM and a viral control group with only 100 μL of FIPV were added). Three replicate wells were used for each group. […] Then, apoptosis was detected according to the instructions of the Annexin V-FITC/PI Apoptosis Detection Kit (MCE, USA). The results were observed using a fluorescence inverted microscope, and the fluorescence intensity was analyzed using ImageJ.

[4] = test system: FIPV (BJ-01); experiment: Impact of the compound on FIPV replication (compound added after infection, CCK-8); format: cell-based, feline infectious peritonitis virus
Procedure: According to previous methods, CRFK cells were seeded in 96-well cell culture plates at a density of 1 × 10^4 cells/well and cultured at 37 °C in 5% CO2 until the cell density was greater than 90%. Then, the medium was discarded, and the cells were washed twice with PBS. FIPV was first added into 96-well cell culture plates at 100 μL/well then incubated at 37 °C and 5% CO2 for 1, 2, 4, 6, 8, 10, 12, and 14 h, respectively. After that, the viral solution was discarded and washed with PBS twice and then the compound was added at 100 μL/well and incubated at 37 °C and 5% CO2 (at the same time, a cell control group with only 100 μL of MM and a viral control group with only 100 μL of FIPV were added). There were 3 replicate wells for each compound and group. After the CPE of the viral control group reached more than 80%, the liquid in the culture plate was removed and washed twice with PBS. Afterwards, the IR of the compounds against the virus was computed according to the directions of the Cell Counting Kit-8.

[5] = Cytotoxicity assay of the compounds (CCK-8); format: cell-based, feline; details: cat
Procedure: (§1) CRFK cells were seeded in 96-well cell culture plates at a density of 1 × 10^4 cells/well and incubated at 37 °C with 5% CO2 until the cell density reached more than 90%. Then, the medium was discarded, and the cells were washed twice with PBS. The compound to be tested was diluted in 10 successive gradients with MM at a 2-fold multiplicity (at the same time, there was a cell control group of 100 μL of MM, and 3 replicate wells were set for each concentration and group) and incubated at 37 °C with 5% CO2 for 72 h; then, the liquid in the plate was discarded and washed twice with PBS. Afterwards, the cytopathic ratios (CRs) of the compounds to cells were calculated according to the instructions of the Cell Counting Kit-8 (MCE, NJ, USA), and the CC50s of the compounds and the MNTCs at which the compounds could survive more than 90% of the cells were calculated using GraphPad Prism 10. In subsequent experiments, the final concentrations of the compounds after addition were the MNTCs of the compounds unless otherwise specified.

[6] = test system: CRFK cells; experiment: Cytotoxicity assay of the compounds (CCK-8); format: cell-based, feline; details: cat, 72 h
Procedure: as §1

[7] = treatment/FIPV comparison group

O=C(O)[C@H]1O[C@@H](Oc2cc3oc(-c4ccccc4)cc(=O)c3c(O)c2O)[C@H](O)[C@@H](O)[C@@H]1O [Baicalin]
inhibition rate on FIPV (direct inactivation) ([1]; 150 min of co-culture of baicalin with FIPV): ~100% | inhibition rate on FIPV (direct inactivation) ([1]; baicalin co-cultured with FIPV 30-150 min before addition to CRFK cells, all times): more than 50% | AKT2 level (4D-LFQ) ([2]; treatment group vs FIPV group): significantly upregulated | AKT3 level (4D-LFQ) ([2]; treatment group vs FIPV group): tended to increase | EGFR level (4D-LFQ) ([2]; treatment group vs FIPV group): significantly upregulated | PIK3CA level (4D-LFQ) ([2]; treatment group vs FIPV group): significantly upregulated | BAX level (4D-LFQ) [2, 7]: downregulated but not significant | BCL2L level (4D-LFQ) [2, 7]: upregulated but not significant | CASP9 level (4D-LFQ) [2, 7]: significantly downregulated | fluorescence intensity per unit area of cells (early apoptosis, green fluorescence) [3]: significantly lower | inhibition rate on FIPV (replication blocking) ([4]; baicalin added after 10 h of infection): significantly reduced | inhibition rate on FIPV (replication blocking) ([4]; baicalin added within 8 h of FIPV infection of CRFK cells): more than 50% | CC50 at 72 h [5]: 114 µg/mL (≈ 257 µM) | MNTC (maximum noncytotoxic concentration) [6]: 31.36 µg/mL
